Experimental data taken from US7442393B2, “Herbal extracts of Salicornia species, process of preparation thereof, use thereof against tuberculosis” (priority 2003, dated 2008).

System: M. tuberculosis H37Rv
Test: In vivo screening of antitubercular activity in infected mice model of experimental tuberculosis
Design: species or system Female swiss mice
Conditions: 25 mg/kg body weight for 10 days after infection

C[C@@H]1CN(c2c(F)c(N)c3c(=O)c(C(=O)O)cn(C4CC4)c3c2F)C[C@H](C)N1 [sparfloxicin]
general health and body weight of infected mice: healthy, gained weight
mortality of infected mice: none of the mice died
